The record followed here is PubChem BioAssay AID248 (DTP/NCI, 2004).

Each structure is given as a SMILES string. Where “and” joins values, the source holds several entries; their conditions need not be identical. Identical values can stand only once. Inconclusive results and toxic doses are left out. Numbered stars: 1 amine (or outer) side, 2 acyl side, 3 side chain; on linkers, the order of the positions; unused ones are H or OH. Bridge positions count the residues as written; N and C are the ends. Square brackets hold non-standard residues; d marks the D form. Peptide text beside a SMILES is read from it. I, II: the chains in the order shown. Actinocin(1to9) = Cc1c2oc3c(C)ccc(C(=O)[*:2])c3nc-2c(C(=O)[*:1])c(N)c1=O; NMeV = CN[CH](C(=O)O)C(C)C; Sar = CNCC(=O)O

In the assay the test system is L1210 leukemia ip in BDF1 mice, survival T/C. Description: NCI In Vivo Anticancer Drug Screen. Data for tumor model L1210 Leukemia (intraperitoneal) in B6D2F1 (BDF1) mice. The following applies: higher = longer survival. The essentials:
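Survival endpoint. Drug-treated group vs vehicle group, expressed as T divided by C. Tumor passaged by transplantation.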

The mark [1] stands for this setting: endpoint: mean survival time, dose: 100.0 mg/kg/injection, schedule: Q04DX003 (ip), vehicle: Klucel (hydroxypropylcellulose) (HPC).
The mark [2] stands for this setting: endpoint: mean survival time, dose: 200.0 mg/kg/injection, schedule: Q04DX003 (ip), vehicle: Klucel (hydroxypropylcellulose) (HPC).
Where [3] appears, read: endpoint: mean survival time, dose: 400.0 mg/kg/injection, schedule: Q04DX003 (ip), vehicle: Klucel (hydroxypropylcellulose) (HPC).

Consider `CCOC(=O)N1CCC2(CC1)NC(=O)c1ccccc1N2`, for which the T/C is 98 % of control (endpoint: mean survival time, dose: 100.0 mg/kg/injection, schedule: Q01DX009 (ip), vehicle: saline with Tween-80); 100 % of control (endpoint: mean survival time, dose: 100.0 mg/kg/injection, schedule: Q04DX003 (ip), vehicle: saline with Tween-80); 97 % of control (endpoint: mean survival time, dose: 200.0 mg/kg/injection, schedule: Q01DX009 (ip), vehicle: saline with Tween-80); 102 % of control (endpoint: mean survival time, dose: 200.0 mg/kg/injection, schedule: Q04DX003 (ip), vehicle: saline with Tween-80); 97 % of control (endpoint: mean survival time, dose: 400.0 mg/kg/injection, schedule: Q01DX009 (ip), vehicle: saline with Tween-80); 96 % of control (endpoint: mean survival time, dose: 400.0 mg/kg/injection, schedule: Q04DX003 (ip), vehicle: saline with Tween-80).

For the molecule `CCC(C)C1NC(=O)C(NC(=O)c2c3nc4c(C(=O)NC5C(=O)NC(C(C)C)C(=O)N6CCCC6C(=O)N(C)CC(=O)N(C)C(C(C)C)C(=O)OC5C)ccc(C)c4oc-3c(C)c(=O)c2N)C(C)OC(=O)C(C(C)C)N(C)C(=O)CN(C)C(=O)C2CCCN2C1=O` (stereo not given) (I: TIP[Sar][NMeV] / II: TVP[Sar][NMeV]; ester I:1-I:C, II:1-II:C; linker I:N-II:N via Actinocin(1to9); configuration not given here), the T/C (endpoint: mean survival time, dose: 0.2 mg/kg/injection, schedule: Q01DX009 (ip), vehicle: saline) was 92 % of control; the T/C (endpoint: mean survival time, dose: 3.1 micrograms/kg/injection, schedule: Q01DX001 (ip), vehicle: saline) was 97 % of control; the T/C (endpoint: mean survival time, dose: 5.5 micrograms/kg/injection, schedule: Q01DX009 (ip), vehicle: acetone) is 112 % of control; the T/C (endpoint: mean survival time, dose: 6.3 micrograms/kg/injection, schedule: Q01DX001 (ip), vehicle: saline) is 98 % of control; the T/C (endpoint: mean survival time, dose: 8.2 micrograms/kg/injection, schedule: Q01DX009 (ip), vehicle: acetone) was 123 % of control; the T/C (endpoint: mean survival time, dose: 12.5 micrograms/kg/injection, schedule: Q01DX001 (ip), vehicle: saline) is 100 % of control. Besides, the T/C is 107 % of control (endpoint: mean survival time, dose: 25.0 micrograms/kg/injection, schedule: Q01DX001 (ip), vehicle: saline); 159 % of control (endpoint: mean survival time, dose: 25.0 micrograms/kg/injection, schedule: Q01DX009 (ip), vehicle: saline); 114 % of control (endpoint: mean survival time, dose: 50.0 micrograms/kg/injection, schedule: Q01DX001 (ip), vehicle: saline); 111 % of control (endpoint: mean survival time, dose: 100.0 micrograms/kg/injection, schedule: Q01DX001 (ip), vehicle: saline); 117 % of control (endpoint: mean survival time, dose: 200.0 micrograms/kg/injection, schedule: Q01DX001 (ip), vehicle: saline); 116 % of control (endpoint: mean survival time, dose: 400.0 micrograms/kg/injection, schedule: Q01DX001 (ip), vehicle: saline). Also, the T/C is 121 % of control (endpoint: median survival time, dose: 12.5 micrograms/kg/injection, schedule: Q01DX009 (ip), vehicle: water); 115 % of control (endpoint: median survival time, dose: 25.0 micrograms/kg/injection, schedule: Q01DX009 (ip), vehicle: water); 157 % of control (endpoint: median survival time, dose: 100.0 micrograms/kg/injection, schedule: Q01DX009 (ip), vehicle: water); 115 % of control (endpoint: median survival time, dose: 200.0 micrograms/kg/injection, schedule: Q01DX001 (ip), vehicle: water); 123 % of control (endpoint: median survival time, dose: 400.0 micrograms/kg/injection, schedule: Q01DX001 (ip), vehicle: water); 150 % of control (endpoint: median survival time, dose: 600.0 micrograms/kg/injection, schedule: Q04DX003 (ip), vehicle: water).

As to `CC(CCCO)C1CCC2C3CCC4CC5(CCC4(C)C3CCC12C)OCCO5` (stereo not given), the T/C was 104 % of control (endpoint: mean survival time, dose: 100.0 mg/kg/injection, schedule: Q01DX009 (sc), vehicle: steriod suspending solution); 92 % of control (endpoint: mean survival time, dose: 200.0 mg/kg/injection, schedule: Q01DX009 (sc), vehicle: steriod suspending solution); 94 % of control (endpoint: mean survival time, dose: 400.0 mg/kg/injection, schedule: Q01DX009 (sc), vehicle: steriod suspending solution).

Regarding `Cc1ccc(C(=O)C2C3C=CC(C3)C2C(=O)c2ccc(C)cc2)cc1` (stereo not given), the T/C was 95 % of control (endpoint: mean survival time, dose: 75.0 mg/kg/injection, schedule: Q01DX009 (ip), vehicle: Klucel (hydroxypropylcellulose) (HPC)); 90 % of control (endpoint: mean survival time, dose: 150.0 mg/kg/injection, schedule: Q01DX009 (ip), vehicle: Klucel (hydroxypropylcellulose) (HPC)); 95 % of control (endpoint: mean survival time, dose: 300.0 mg/kg/injection, schedule: Q01DX009 (ip), vehicle: Klucel (hydroxypropylcellulose) (HPC)).

In the case of `CN(C)C(=O)Sc1ccc2c(c1)CCC1C2CCC2(C)C(=O)CCC12` (stereo not given), the T/C (endpoint: mean survival time, dose: 100.0 mg/kg/injection, schedule: Q01DX001 (ip), vehicle: gum acacia) is 101 % of control; the T/C (endpoint: mean survival time, dose: 200.0 mg/kg/injection, schedule: Q01DX001 (ip), vehicle: gum acacia) is 101 % of control; the T/C (endpoint: mean survival time, dose: 400.0 mg/kg/injection, schedule: Q01DX001 (ip), vehicle: gum acacia) was 97 % of control.

As to `CC(C)c1ccccc1O`, the T/C is 94 % of control under setting [1], 95 % of control under setting [2] and 90 % of control under setting [3].

As for `CC1(C)N=C(N)N=C(N)N1c1cccc(Cl)c1`, the T/C by setting is: (endpoint: mean survival time, dose: 1.15 mg/kg/injection, schedule: Q01DX Z (ip), vehicle: carboxymethylcellulose (CMC)) 98 % of control; (endpoint: mean survival time, dose: 2.3 mg/kg/injection, schedule: Q01DX Z (ip), vehicle: carboxymethylcellulose (CMC)) 97 % of control; (endpoint: mean survival time, dose: 2.5 mg/kg/injection, schedule: Q01DX015 (ip), vehicle: saline) 111 % of control; (endpoint: mean survival time, dose: 4.6 mg/kg/injection, schedule: Q01DX Z (ip), vehicle: carboxymethylcellulose (CMC)) 117 % of control; (endpoint: mean survival time, dose: 5.0 mg/kg/injection, schedule: Q01DX015 (ip), vehicle: saline) 114 % of control; (endpoint: mean survival time, dose: 9.2 mg/kg/injection, schedule: Q01DX Z (ip), vehicle: carboxymethylcellulose (CMC)) 108 % of control. For the same molecule, the T/C is 119 % of control (endpoint: mean survival time, dose: 10.0 mg/kg/injection, schedule: Q01DX015 (ip), vehicle: saline); 114 % of control (endpoint: mean survival time, dose: 40.0 mg/kg/injection, schedule: Q01DX015 (ip), vehicle: saline); 111 % of control (endpoint: mean survival time, dose: 75.0 mg/kg/injection, schedule: Q01DX001 (ip), vehicle: acetone).

As to `O=[N+]([O-])c1ccc(C=Nc2ccccc2-c2ccccc2)s1`, the T/C runs as follows: under setting [1], 98 % of control; under setting [2], 98 % of control; under setting [3], 95 % of control.

For the molecule `Cc1ccc([N+](=O)[O-])cc1NC(=O)c1ccccc1`, the T/C reads like this: (endpoint: mean survival time, dose: 100.0 mg/kg/injection, schedule: Q01DX001 (ip), vehicle: carboxymethylcellulose (CMC)) 93 % of control; (endpoint: mean survival time, dose: 200.0 mg/kg/injection, schedule: Q01DX001 (ip), vehicle: carboxymethylcellulose (CMC)) 96 % of control; (endpoint: mean survival time, dose: 400.0 mg/kg/injection, schedule: Q01DX001 (ip), vehicle: carboxymethylcellulose (CMC)) 93 % of control.

As to `N#C[CH2][Sn]([I])([c]1ccccc1)[c]1ccccc1`, the T/C by setting is: (endpoint: mean survival time, dose: 12.5 mg/kg/injection, schedule: Q04DX002 (ip), vehicle: saline with Tween-80) 100 % of control; (endpoint: mean survival time, dose: 25.0 mg/kg/injection, schedule: Q04DX002 (ip), vehicle: saline with Tween-80) 107 % of control; (endpoint: mean survival time, dose: 50.0 mg/kg/injection, schedule: Q04DX002 (ip), vehicle: saline with Tween-80) 91 % of control.

For the molecule `O=C(OCCN1CCCCC1)C(c1ccccc1)C1(O)CCCC1` (stereo not given), the T/C (endpoint: mean survival time, dose: 50.0 mg/kg/injection, schedule: Q01DX009 (ip), vehicle: saline) was 106 % of control and the T/C (endpoint: mean survival time, dose: 100.0 mg/kg/injection, schedule: Q01DX009 (ip), vehicle: saline) was 116 % of control.

Turning to `CCCCCCCCCCNCCCCNCCCCCCCCCC`, the T/C by setting is: (endpoint: mean survival time, dose: 1.56 mg/kg/injection, schedule: Q01DX009 (ip), vehicle: Klucel (hydroxypropylcellulose) (HPC)) 92 % of control; (endpoint: mean survival time, dose: 3.12 mg/kg/injection, schedule: Q01DX009 (ip), vehicle: Klucel (hydroxypropylcellulose) (HPC)) 87 % of control; (endpoint: mean survival time, dose: 6.25 mg/kg/injection, schedule: Q01DX009 (ip), vehicle: Klucel (hydroxypropylcellulose) (HPC)) 92 % of control and 93 % of control.

For `Cc1cc(Cl)c2ccccc2n1`, the T/C (endpoint: mean survival time, dose: 37.5 mg/kg/injection, schedule: Q04DX003 (ip), vehicle: saline) was 103 % of control; the T/C (endpoint: mean survival time, dose: 75.0 mg/kg/injection, schedule: Q01DX001 (ip), vehicle: other) is 108 % of control; the T/C (endpoint: mean survival time, dose: 75.0 mg/kg/injection, schedule: Q04DX003 (ip), vehicle: saline) is 95 % of control.

As to `Cc1ccc(NCC(=O)O)cc1`, the T/C is 101 % of control (endpoint: mean survival time, dose: 100.0 mg/kg/injection, schedule: Q01DX Z (ip), vehicle: methylcellulose (MC)) and 101 % of control (endpoint: mean survival time, dose: 200.0 mg/kg/injection, schedule: Q01DX Z (ip), vehicle: methylcellulose (MC)).

As for `COc1cc(Cl)ccc1NC(=O)Oc1ccc2c(C)cc(=O)oc2c1`, for the setting “endpoint: mean survival time, dose: 100.0 mg/kg/injection, schedule: Q01DX009 (ip), vehicle: Klucel (hydroxypropylcellulose) (HPC)”, the T/C was 100 % of control.
